{"source": "patent US20090042848A1", "about": "“COPPER COMPLEXES” (priority 2005, published 2009)", "key": {"stomach": {"test_system": "stomach", "experiment": "Acute macroscopic gastric damage after oral dosing", "format": "in vivo, Sprague-Dawley rats", "conditions": "for Gastric Ulceration / macroscopic gastric ulcerations (in words, FIG. 8(1)): oral; for macroscopic gastric ulcerations (in words, FIG. 8(1)): IndoH 10 mg/kg or equimolar Indo dose in 2% (w/v) CMC solution", "experimental": "Rats were fasted with access to water for 24 h prior to dosing and 3 hours post dosing. Three hours after administration of the test compound, the rats were euthanased and the stomach was excised and opened by incision along the greater curvature.\nAfter the aforementioned anti-inflammatory activity experiments, the rats were immediately euthanased. Similarly, the stomach was excised and opened by incision along the greater curvature for the examination of the macroscopic ulcerations (mm^2).\nSince there were no significant differences in the results obtained by the two methods, the results shown in FIG. 8(1) are those of the two methods combined."}, "[1]": {"test_system": "carrageenan-induced paw edema", "experiment": "Inhibition of carrageenan-induced paw edema (rat paw oedema assay)", "format": "in vivo, Sprague-Dawley rats", "conditions": "oral"}, "small intestine": {"test_system": "small intestine", "conditions": "oral"}, "[2]": {"conditions": "oral administration; cited from earlier work"}, "[3]": {"conditions": "10 mg/kg of Indo dispersed in MCT paste"}, "[4]": {"conditions": "1 mg/kg of Indo dispersed in MCT paste"}, "[5]": {"conditions": "2 mg/kg of Indo dispersed in MCT paste"}}, "note": "Entries after “also recorded” stand apart in the source; their conditions may differ.", "data": [{"compound": "COc1ccc2c(c1)c(CC(=O)O)c(C)n2C(=O)c1ccc(Cl)cc1", "note": "[IndoH, Indomethacin, reference compound]", "values": [{"measurement": "Gastric Ulceration", "setting": "stomach; [3]", "result": "115 ± 30", "unit": "mm^2"}, {"measurement": "Inhibition %", "setting": "[1]; [3]", "result": "54 ± 12", "unit": "%"}, {"measurement": "Small Intestine Ulceration (mm^2)", "setting": "small intestine; [3]", "result": "80 ± 7", "unit": "mm^2"}]}, {"compound": "CN(C)C=O.CN(C)C=O.COc1ccc2c(c1)c(CC(=O)[O-])c(C)n2C(=O)c1ccc(Cl)cc1.COc1ccc2c(c1)c(CC(=O)[O-])c(C)n2C(=O)c1ccc(Cl)cc1.COc1ccc2c(c1)c(CC(=O)[O-])c(C)n2C(=O)c1ccc(Cl)cc1.COc1ccc2c(c1)c(CC(=O)[O-])c(C)n2C(=O)c1ccc(Cl)cc1.[Cu+2].[Cu+2]", "note": "[[Cu2(Indo)4(DMF)2], bis(N,N-dimethylformamide)tetrakis-μ-(O,O′-Indo)dicopper(II) complex]", "values": [{"measurement": "macroscopic gastric ulcerations (in words, FIG. 8(1))", "setting": "stomach", "result": "significant reductions (P<0.01) in gastric ulcerations as compared to those induced by IndoH"}, {"measurement": "small intestinal toxicity / ulceration (in words, FIG. 8(2))", "setting": "small intestine; equimolar Indo dose (10 mg/kg IndoH) in 2% (w/v) CMC solution, 24 h after dosing", "result": "low small intestinal toxicity"}, {"measurement": "gastrointestinal toxicity compared with indomethacin (in words)", "setting": "[2]", "result": "less gastrointestinal toxicity than indomethacin"}]}, {"compound": "Bis(η^1-O-Indo)tris(pyridine)copper(II) [[Cu(Indo)2(Py)3], reference compound]", "values": [{"measurement": "macroscopic gastric ulcerations (in words, FIG. 8(1))", "setting": "stomach", "result": "no significant difference in the gastric ulcerations induced by [Cu(Indo)2(Py)3] or IndoH"}, {"measurement": "efficacy in reducing inflammation (in words, FIG. 9)", "setting": "[1]; equimolar Indo dose (10 mg/kg IndoH) in 2% (w/v) CMC solution", "result": "as effective as [Cu2(Indo)4(DMF)2] in reducing inflammation"}]}, {"compound": "Bis(η^2-O,O′-Indo)bis(pyrrolidine)copper(II)-2-pyrrolidine monohydrate [[Cu(Indo)2(Pyrro)2]]", "values": [{"measurement": "macroscopic gastric ulcerations (in words, FIG. 8(1))", "setting": "stomach; monohydrate", "result": "significant reductions (P<0.01) in gastric ulcerations as compared to those induced by IndoH; also recorded: significant reduction in gastric ulceration compared with [Cu2(Indo)4(DMF)2]"}, {"measurement": "average gastric ulceration", "setting": "stomach; second experiment, different sample precipitated from solution with diethyl ether, four rats, same dose of Indo", "result": 21, "unit": "mm^2"}]}, {"compound": "bis(η^2-O,O′-Indo)bis(4-picoline)copper(II) [[Cu(Indo)2(4-pic)2]]", "values": [{"measurement": "Inhibition %", "setting": "[1]; [4]", "result": 28, "unit": "%"}, {"measurement": "Inhibition %", "setting": "[1]; [5]", "result": 54, "unit": "%"}, {"measurement": "Inhibition %", "setting": "[1]; 2 mg/kg of Indo in 2% CMC", "result": 16, "unit": "%"}, {"measurement": "Inhibition %", "setting": "[1]; [3]", "result": "57 ± 19", "unit": "%"}]}, {"compound": "bis(η^2-O,O′-Indo)bis(imidazole)copper(II) [[Cu(Im)2(Indo)2]]", "values": [{"measurement": "Gastric Ulceration", "setting": "stomach; [4]", "result": "2 ± 2", "unit": "mm^2"}, {"measurement": "Gastric Ulceration", "setting": "stomach; [5]", "result": "3 ± 42", "unit": "mm^2"}, {"measurement": "Gastric Ulceration", "setting": "stomach; 2 mg/kg of Indo in 2% CMC", "result": "3 ± 3", "unit": "mm^2"}, {"measurement": "Gastric Ulceration", "setting": "stomach; [3]", "result": "55 ± 42", "unit": "mm^2"}, {"measurement": "Inhibition %", "setting": "[1]; [4]", "result": 31, "unit": "%"}, {"measurement": "Inhibition %", "setting": "[1]; [5]", "result": 39, "unit": "%"}, {"measurement": "Inhibition %", "setting": "[1]; 2 mg/kg of Indo in 2% CMC", "result": 11, "unit": "%"}, {"measurement": "Inhibition %", "setting": "[1]; [3]", "result": "45 ± 16", "unit": "%"}]}]}
